Assay [1] deals with B16 murine melanoma cells. The assay can be described thus: B16 melanoma cell growth inhibition MTS assay. In kind it is cell-based. Particulars: for GI50: Mus musculus, B16 murine melanoma cells; for GI50 / growth inhibition of B16 melanoma cells (in words): 48 h, MTS. The procedure: B16 murine melanoma cells were plated at 5×10^3/well in 96 well flat bottom plates. The following day, media was changed to that containing various concentrations of HDACi or matched DMSO vehicle concentrations diluted in complete medium done in triplicate. Cells were incubated for 48 hours at 37° C. and 5% CO2. […] Briefly, 20 μL of reagent were added per well and incubated at 37° C. for 3 hours. […] All values were then normalized and expressed as a percentage of medium control (100%).

In assay [2] the test system is acetyl-tubulin and acetyl-histone3 in human melanoma cell lines. The assay can be described thus: Western blot of HDAC substrate acetylation in human melanoma cells. In kind it is cell-based. Particulars: 24 hrs. The procedure:
Error bars represent standard deviation from triplicates. This figure is representative of three independent experiments. (F,G,H) Cell cycle analysis of melanoma WM164, WM983A and WM793 human melanoma cell lines stained with propidium iodide. Data is representative of three experiments with similar results.
To confirm the selectivity of isotype specific HDACi, Western blot analysis was performed on the acetylation status of known HDAC substrates including histone H3 and H4, which are known Class I HDAC targets, and α-tubulin, a target for HDAC6. The doses required to impart the anti-proliferative effect coincided with that needed to increase acetylation of the respective HDAC substrates (FIG. 41F-41H). […] Conversely, HDAC6 selective inhibitors (HDAC6i) increase α-tubulin acetylation but not histone acetylation (FIG. 41F).
A general note: Immunoblotting shows a protein as a band on a membrane.

Assay [3] has as its system Human cutaneous T-cell lymphoma (CTCL) HuT-78. Put plainly: Cell viability CellTiter 96 Aqueous ONE, HuT-78. Particulars: HuT-78, 24 hrs, compared to DMSO. In kind it is cell-based. On the procedure: (§1) Human cutaneous T-cell lymphoma (CTCL) HuT-78 (A), murine mantle cell lymphoma (MCL) (B), and murine melanoma B16 (C) and SM1 (D) cells were incubated with JB7-19, JB7-22, JB720 at different concentrations for 24 hrs. Cell viability was measured using CellTiter 96 Aqueous ONE solution (Promega, Madison, Wis.) and compared to DMSO treated control samples. Error bars represent standard deviation from triplicates.

In assay [4] the test system is murine mantle cell lymphoma (MCL). Put plainly: Cell viability CellTiter 96 Aqueous ONE, MCL. The class given is cell-based. Particulars: 24 hrs, compared to DMSO. The procedure:
as §1

Another assay has as its system murine melanoma B16. Put plainly: Cell viability CellTiter 96 Aqueous ONE, B16. In kind it is cell-based. As to conditions: B16, 24 hrs, compared to DMSO. On the procedure: as §1
For the next assay, the system named is murine melanoma SM1. Put plainly: Cell viability CellTiter 96 Aqueous ONE, SM1. In kind it is cell-based. As to conditions: SM1, 24 hrs, compared to DMSO. On the procedure:
as §1

Assay [5] has as its system IL-10 production in murine peritoneal elicited primary macrophages (PEM). Put plainly: IL-10 production ELISA, PEM. As to conditions: 24 hrs. The class given is cell-based. On the procedure:
(§2) Murine peritoneal elicited primary macrophages (PEM)(A) and murine RAW264.7 (B) cells were incubated with JB7-19, JB7-22, JB720 at the concentration indicated on each chart. After 24 hrs, the production of IL-10 was measured by ELISA.
(In general: An ELISA detects its analyte on a solid surface through an enzyme-linked reagent.)

The subject of assay [6] is IL-10 production in murine RAW264.7 cells. Put plainly: IL-10 production ELISA, RAW264.7. In kind it is cell-based. Particulars: RAW264.7, 24 hrs. The procedure:
as §2

The target in assay [7] is human, recombinant full-length HDAC6 (Homo sapiens (Human), UniProt Q9UBN7). The assay can be described thus: HDAC inhibition assay (Reaction Biology), HDAC6. In kind it is biochemical.
human, recombinant full-length HDAC6, sequence (Q9UBN7 whole entry): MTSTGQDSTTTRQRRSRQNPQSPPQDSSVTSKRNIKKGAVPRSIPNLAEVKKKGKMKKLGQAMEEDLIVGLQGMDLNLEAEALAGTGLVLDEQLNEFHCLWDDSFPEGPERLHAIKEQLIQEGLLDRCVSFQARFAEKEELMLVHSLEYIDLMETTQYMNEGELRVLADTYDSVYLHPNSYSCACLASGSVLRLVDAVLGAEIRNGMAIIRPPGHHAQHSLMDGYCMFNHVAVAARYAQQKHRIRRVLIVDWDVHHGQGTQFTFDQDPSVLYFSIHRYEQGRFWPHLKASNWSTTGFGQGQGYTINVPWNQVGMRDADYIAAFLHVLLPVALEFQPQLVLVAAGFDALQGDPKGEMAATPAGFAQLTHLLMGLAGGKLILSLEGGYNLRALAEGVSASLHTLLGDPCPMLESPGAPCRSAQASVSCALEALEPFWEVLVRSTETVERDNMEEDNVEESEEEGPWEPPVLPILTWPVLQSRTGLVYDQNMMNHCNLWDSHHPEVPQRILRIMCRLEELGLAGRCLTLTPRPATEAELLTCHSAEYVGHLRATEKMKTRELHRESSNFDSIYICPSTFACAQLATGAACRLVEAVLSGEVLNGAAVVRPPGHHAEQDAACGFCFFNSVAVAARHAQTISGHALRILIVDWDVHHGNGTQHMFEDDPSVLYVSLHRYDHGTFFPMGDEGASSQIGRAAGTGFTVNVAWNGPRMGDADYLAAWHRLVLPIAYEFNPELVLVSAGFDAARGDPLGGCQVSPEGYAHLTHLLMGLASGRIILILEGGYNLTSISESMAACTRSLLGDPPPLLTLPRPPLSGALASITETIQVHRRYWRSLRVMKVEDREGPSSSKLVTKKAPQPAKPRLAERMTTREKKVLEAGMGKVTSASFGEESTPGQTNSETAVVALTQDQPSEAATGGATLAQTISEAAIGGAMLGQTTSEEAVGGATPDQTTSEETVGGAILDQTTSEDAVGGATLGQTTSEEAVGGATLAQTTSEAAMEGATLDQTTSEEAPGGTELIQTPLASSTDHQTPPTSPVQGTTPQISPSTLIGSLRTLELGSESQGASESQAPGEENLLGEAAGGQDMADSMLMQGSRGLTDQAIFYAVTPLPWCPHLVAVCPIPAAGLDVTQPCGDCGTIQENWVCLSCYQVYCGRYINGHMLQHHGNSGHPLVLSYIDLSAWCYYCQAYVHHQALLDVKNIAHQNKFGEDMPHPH
Assay [8] deals with NRAS and BRAF mutant human melanoma cell lines. The assay can be described thus: Human melanoma cell proliferation MTS assay. The class given is cell-based. Particulars: 24 h, panel of human melanoma cell lines. The procedure: Cell proliferation was evaluated using various pan- and isotype selective HDACi in a broad panel of human melanoma cell lines. Briefly, cells were plated at 10×10^3/well in a 96 well flat bottom plate. The following day, media was changed to that containing different concentrations of HDACi or matched DMSO vehicle concentrations diluted in complete medium done in triplicate, all with a final concentration of less than 0.1% DMSO. Cells were incubated for 24 hours at 37° C. and 5% CO2. […] All values were then normalized and expressed as a percentage of medium control growth.

Assay [9] deals with acetyl-α-tubulin and acetyl-H3 in B16 melanoma cells. The assay can be described thus: Tubulin and histone acetylation Western blot assay. In kind it is cell-based, murine. As to conditions: low nanomolar treatment, 24 h. The procedure:
[…]. B16 melanoma cells were plated at 10^5 cells/well in 12 well plates and allowed to adhere overnight. A 50 mM stock of compound was then added by serial dilutions in complete medium to the indicated concentrations. Cells were incubated for 24 h under humidified conditions (37° C., 5% CO2). Wells were then washed with cold PBS, and cells were lysed in a buffer containing 10 mM Tris-HCl pH 8.0, 10% SDS, […], 100 mM DTT, and 1× protease inhibitor (Roche). Cells were lysed for 30 min on ice and then sonicated for 8 min (8 cycles of 30 s on/30 s rest). Cells were then boiled for 10 min with 6× gel loading buffer and resolved on 4-15% gradient gels and subsequently transferred onto nitrocellulose membranes. Membranes were blocked with 5% milk in PBS-T and detection of specific antigens using antibodies against acetyl-H3 and H3 (Cell Signaling), and acetyl-α-tubulin and α-tubulin (Sigma). Bands were detected by scanning blots with LI-COR Odyssey imaging system using both 700 and 800 channels.

In assay [10] the test system is melanoma antigens gp100, MART1, TYRP1 and TYRP2 in human melanoma cell lines. Put plainly: Tumor antigen expression by qRT-PCR. In kind it is cell-based. Particulars: 48 hours. On the procedure: (D) Expression of tumor antigens was measured in human WM164 non-target and HDAC6KD cells. (E) Expression of tumor antigens mart-1 and gp-100 was measured by western blot.
In addition to direct cytotoxicity, pan-HDACi have immunologic effects on melanoma including modulation of MHC, co-stimulatory molecules, and cytokine production. In both human and murine melanoma cell lines, genetic (FIG. 43A) and pharmacologic (FIG. 43B) disruption of HDAC6 led to increased surface expression of MHC I by flow cytometry.
(In general: Quantitative PCR measures a nucleic acid by following its amplification.)

In a further assay the test system is B16 melanoma. The assay can be described thus: In vivo B16 melanoma tumor growth in C57BL/6 mice. As to conditions: 25 mg/kg, intraperitoneal, three times weekly, B16 subcutaneous.

This is an account of results in patent publication US10227295B2, “Selective histone deactylase 6 inhibitors” (H. LEE MOFFITT CANCER CENTER AND RESEARCH INSTITUTE, INC., priority 2013, dated 2019).

One may read the GI50 as the concentration at which growth is held to half of that of the control.

`CCCCN(C(=O)NCc1ccc(C(=O)NO)cc1)c1ccccc1` [Compound 8a, 4-((3-butyl-3-phenylureido)methyl)-N-hydroxybenzamide] displayed a GI50 in assay [1] of 65.8 ± 1.19 µM.
`COc1ccccc1NC(=O)N(CCc1c[nH]c2ccccc12)Cc1ccc(C(=O)NO)cc1` [Compound 5c, 4-((1-(2-(1H-indol-3-yl)ethyl)-3-(2-methoxyphenyl)ureido)methyl)-N-hydroxybenzamide] returned a GI50 in [1] of 30.4 ± 1.32 µM.
For `CCN(C(=O)NCc1ccc(C(=O)NO)cc1)c1ccccc1` [Compound 8c, 4-((3-ethyl-3-phenylureido)methyl)-N-hydroxybenzamide], the GI50 in [1] was over 100 µM.
Consider `COc1ccccc1NC(=O)N(CCc1ccc(O)cc1)Cc1ccc(C(=O)NO)cc1` [Compound 5d, N-hydroxy-4-((1-(4-hydroxyphenethyl)-3-(2-methoxyphenyl)ureido)methyl)-benzamide], for which the GI50 in [1] was determined as 18.4 ± 1.23 µM.
Regarding `CCCCN(Cc1ccc(C(=O)NO)cc1)C(=O)Nc1ncccn1` [JB6-22, 4-((1-butyl-3-(pyrimidin-2-yl)ureido)methyl)-N-hydroxybenzamide], the “acetylation of α-tubulin and histone” value in assay [2] was “increase acetyl-tubulin without modifying the acetylation status of Histone 3”. The “cell proliferation / viability” value (in assay [3]; in assay [4]; with murine melanoma B16; in the assay on murine melanoma SM1) was “decrease cell proliferation” each time. Further, the IL-10 production entry in [5] and in assay [6] was “inhibit IL-10 production” each time.
As for `COc1ccccc1N1C(=O)N(Cc2ccc(C(=O)NO)cc2)C(C)(C)C1=O` [Compound 10a], the “Fold Selective (HDAC1/HDAC6)” value in assay [7] (Table 2, cyclic urea compounds) is recorded as 386.
The compound `COc1ccccc1NC(=O)N(CCCN(C)C)Cc1ccc(C(=O)NO)cc1` [Compound 5a, 4-((1-(3-(dimethylamino)propyl)-3-(2-methoxyphenyl)ureido)methyl)-N-hydroxybenzamide] came in with a GI50 in assay [1] of 75.3 ± 1.23 µM.
As for `O=C(NO)c1ccc(CN(CCc2ccccc2)C(=O)Nc2ccccc2)cc1` [Compound 5h, N-hydroxy-4-((1-phenethyl-3-phenylureido)methyl)benzamide], in assay [1], the “growth inhibition of B16 melanoma cells (in words)” value (from here on “growth inhibition”) was “capable of inhibiting the growth” and the GI50 is 15.4 ± 1.2 µM.
The compound `COCCCN(Cc1ccc(C(=O)NO)cc1)C(=O)Nc1ccccc1` [Compound 5e, N-hydroxy-4-((1-(3-methoxypropyl)-3-phenylureido)methyl)benzamide] yielded a GI50 in assay [1] of 22.2 ± 1.41 µM.
Regarding `CC(C)[C@@H]1C(=O)N(c2ccccc2)C(=O)N1Cc1ccc(C(=O)NO)cc1` [Compound 10b], in [7] (Table 2, cyclic urea compounds), the “Fold Selective (HDAC1/HDAC6)” value is on record as 531.
As to `COc1ccccc1NC(=O)NCc1ccc(C(N)=O)cc1` [Compound 1], the “Fold Selective (HDAC1/HDAC6)” value in assay [7] (Table 1A) stood at 2.
Take `O=C(NO)c1ccc(CN2C(=O)N[C@@H](Cc3ccccc3)C2=O)cc1` [Compound 11a]: the “Fold Selective (HDAC1/HDAC6)” value in [7] (Table 2, cyclic urea compounds) is reported as 295.
With Trichostatin A [TSA], the “concentration range inhibiting proliferation (in words)” value in assay [8] is “low 100 nM range”.
For the compound `COCCCN(C(=O)NCc1ccc(C(=O)NO)cc1)c1ccccc1` [Compound 8b, N-hydroxy-4-((3-(3-methoxypropyl)-3-phenylureido)methyl)benzamide], the 50% growth inhibitory concentration (GI50) in [1] is over 100 µM.
As to `COc1ccccc1NC(=O)N(CCCO)Cc1ccc(C(=O)NO)cc1` [Compound 5b], in assay [1], the “growth inhibition” value is given as “performed very poorly” and the GI50 is over 100 µM.
As to `CCCCN(Cc1ccc(C(=O)NO)cc1)C(=O)Nc1ccc2cn[nH]c2c1` [JB7-19, 4-((1-butyl-3-(1H-indazol-6-yl)ureido)methyl)-N-hydroxybenzamide], the “acetylation of α-tubulin and histone” value in assay [2] is “increase acetyl-tubulin without modifying the acetylation status of Histone 3”. Also, the “cell proliferation / viability” value (in [3]; in assay [4]; in the assay on murine melanoma B16; in the assay on murine melanoma SM1) was “decrease cell proliferation” throughout. Also, the IL-10 production result in [5] and in assay [6] was “inhibit IL-10 production” each time.
In the case of `CCCCN(Cc1ccc(C(=O)NO)cc1)C(=O)Nc1ccccc1` [Compound 5g, 4-((1-butyl-3-phenylureido)methyl)-N-hydroxybenzamide], in [1], the “less potent than LBH589 in inducing murine B16 melanoma cell death” value is “approximately 100 fold” and the “growth inhibition” value was “capable of inhibiting the growth”. Further, the “acetyl α-tubulin levels” value in [9] was “dose-dependant increase”. In addition, the “histone H3 acetylation” value in [9] (increase only at 1 and 10 μM) is “without a concamanent elevation”. Also, the “acetylation of α-tubulin and histone” value in assay [2] was “increase acetyl-tubulin without modifying the acetylation status of Histone 3”. In addition, in assay [10], the “melanoma antigen expression at the mRNA level” value was “upregulation of melanoma antigens gp100, MART1, TYRP1 and TYRP2”. Moreover, the tumor growth entry in the assay on B16 melanoma is reported as “delayed tumor growth”.
In [1], `Cc1[nH]c2ccccc2c1CCNCc1ccc(/C=C/C(=O)NO)cc1` [LBH589, reference compound] displayed a GI50 of 0.15 µM. For the same compound, the IC50 in [8] (read-out: IC50 range, inhibition of proliferation) was in the range of 10 to 50 nM.
